Drawing on DBAASP, this text covers MIC for four compounds.

Some test systems named below: Escherichia coli DL7; Bacillus subtilis PS832; Escherichia coli AS1.349; Bacillus cereus AS1.126; Escherichia coli BL21.
What all share (assay): ≥ marks a high value that may be exact or a test limit, other limits are often not marked, values filed in µg/mL are converted to µM
Test [1] concerns Pseudomonas aeruginosa CCARM 2163.
For test [2], the system named is Bacillus subtilis KCTC 3068.
The test system of test [3] is Salmonella typhimurium CCARM 8007.
Test [4] concerns Escherichia coli CCARM 1229.
Test [5] relates to Escherichia coli KCTC 1682.
The test system of test [6] is Bacillus subtilis KCTC 1022.
Test [7] has as its system Staphylococcus aureus CCARM 3090.
Test [8] concerns Staphylococcus aureus CCARM 3114.
For test [9], the system named is Staphylococcus aureus KCTC 1621.
Test [10] relates to Pseudomonas aeruginosa CCARM 2002.
Test [11] has as its system Acinetobacter baumannii CCARM 12005.
Test [12] concerns Escherichia coli CCARM 1238.
The subject of test [13] is Salmonella typhimurium CCARM 8009.
Test [14] concerns Pseudomonas aeruginosa CCARM 2003.
Test [15] concerns Salmonella typhimurium KCTC 1926.
The subject of test [16] is Staphylococcus aureus KCTC 1916.
In test [17] the test system is Staphylococcus aureus CCARM 3108.
Test [18] deals with Staphylococcus aureus KCTC 3881.
The test system of test [19] is Pseudomonas aeruginosa CCARM 2095.
The subject of test [20] is Staphylococcus epidermidis KCTC 1917.
The test system of test [21] is Pseudomonas aeruginosa KCTC 2004.
Test [22] concerns Pseudomonas aeruginosa KCTC 2513.
The subject of test [23] is Staphylococcus aureus CCARM 3089.
For test [24], the system named is Bacillus subtilis KCTC 1021.
Test [25] has as its system Escherichia coli KCTC 2571.
Test [26] deals with Salmonella typhimurium CCARM 8003.
Test [27] has as its system Acinetobacter baumannii CCARM 12037.
Test [28] relates to Acinetobacter baumannii CCARM 12036.
In test [29] the test system is Escherichia coli KCTC 2593.
Test [30] deals with Acinetobacter baumannii CCARM 12035.
The test system of test [31] is Pseudomonas aeruginosa KCTC 1637.
Test [32] relates to Staphylococcus aureus CCARM 3126.
In test [33] the test system is Klebsiella aerogenes ATCC 13048.
Test [34] concerns Staphylococcus epidermidis ATCC 12228.
In test [35] the test system is Proteus mirabilis CICC 22931.
Test [36] concerns Pseudomonas aeruginosa CGMCC 1.860.
Test [37] relates to Staphylococcus epidermidis CICC 23664.
Test [38] relates to Staphylococcus aureus AS1.72.
The test system of test [39] is Klebsiella pneumoniae subsp. pneumoniae CGMCC 1.176.
The subject of test [40] is Enterobacter cloacae CGMCC 1.58.
Test [41] concerns Enterococcus faecalis CGMCC 1.595.
Test [42] relates to Enterococcus faecium CGMCC 1.2334.
In test [43] the test system is Staphylococcus epidermidis.
For test [44], the system named is Pseudomonas aeruginosa 0108.
Test [45] relates to Bacillus subtilis ISW 1214.

In brackets after ≈: the same amount, converted by molar mass. A value given as a limit tells only on which side of the number the result lay.

For the compound `CC[C@H](C)[C@H](NC(=O)CNC(=O)[C@H](CCCN=C(N)N)NC(=O)[C@H](CCCCN)NC(=O)[C@@H](NC(=O)[C@H](Cc1cnc[nH]1)NC(=O)[C@H](Cc1cnc[nH]1)NC(=O)[C@H](Cc1ccccc1)NC(=O)[C@@H](N)Cc1ccccc1)[C@@H](C)CC)C(=O)N[C@@H](CCCCN)C(=O)N[C@@H](Cc1cnc[nH]1)C(=O)N[C@H](C(=O)NCC(=O)N[C@@H](CCCCN)C(=O)N[C@H](C(=O)N[C@H](C(=O)N[C@@H](Cc1cnc[nH]1)C(=O)N[C@@H](CCCN=C(N)N)C(=O)N[C@@H](CC(C)C)C(=O)N[C@H](C(=O)N[C@H](C(=O)NCC(=O)O)[C@@H](C)O)C(C)C)[C@@H](C)CC)[C@@H](C)O)C(C)C` [FFHHIKRGIKHVGKTIHRLVTG], the MIC (as a rule, the least concentration at which growth counts as inhibited) was 2 µM (≈ 5.16 µg/mL) in [1]; 4 µM (≈ 10.3 µg/mL) in [2]; 8 µM (≈ 20.7 µg/mL) in [3]; 8 µM (≈ 20.7 µg/mL) in [4]; 2 µM (≈ 5.16 µg/mL) in test [5]; 4 µM (≈ 10.3 µg/mL) in [6]. Moreover, the MIC amounted to 8 µM (≈ 20.7 µg/mL) in test [7]; 8 µM (≈ 20.7 µg/mL) in test [8]; 4 µM (≈ 10.3 µg/mL) in test [9]; 4 µM (≈ 10.3 µg/mL) in test [10]; 4 µM (≈ 10.3 µg/mL) in test [11]; 8 µM (≈ 20.7 µg/mL) in test [12]. Also, the MIC worked out at 8 µM (≈ 20.7 µg/mL) in test [13]; 4 µM (≈ 10.3 µg/mL) in test [14]; 8 µM (≈ 20.7 µg/mL) in test [15]; 4 µM (≈ 10.3 µg/mL) in test [16]; 8 µM (≈ 20.7 µg/mL) in [17]; 4 µM (≈ 10.3 µg/mL) in [18]. Besides, the MIC in test [19] is 2 µM (≈ 5.16 µg/mL); in test [20], 4 µM (≈ 10.3 µg/mL); in [21], 8 µM (≈ 20.7 µg/mL); in [22] it was 8 µM (≈ 20.7 µg/mL); in [23], 8 µM (≈ 20.7 µg/mL); in [24], 8 µM (≈ 20.7 µg/mL). Also, the MIC is 4 µM (≈ 10.3 µg/mL) in [25]; 16 µM (≈ 41.3 µg/mL) in [26]; 4 µM (≈ 10.3 µg/mL) in [27]; 4 µM (≈ 10.3 µg/mL) in [28]; 4 µM (≈ 10.3 µg/mL) in test [29]; 4 µM (≈ 10.3 µg/mL) in test [30]. Further, the MIC in [31] was determined as 4 µM (≈ 10.3 µg/mL); in [32], 8 µM (≈ 20.7 µg/mL).
As to `CC[C@H](C)[C@H](NC(=O)[C@H](CCCN=C(N)N)NC(=O)[C@H](CCCCN)NC(=O)[C@H](CC(C)C)NC(=O)[C@H](CC(C)C)NC(=O)CNC(=O)[C@H](Cc1cnc[nH]1)NC(=O)[C@@H](NC(=O)[C@@H](N)C(C)C)[C@@H](C)CC)C(=O)N[C@@H](CCCCN)C(=O)N[C@H](C(=O)N[C@@H](CC(C)C)C(=O)N[C@@H](CC(C)C)C(N)=O)[C@@H](C)O` [VIHGLLKRIKTLL], the MIC is not below 32 µM in [33], 2 µM (≈ 3.01 µg/mL) in the test with Escherichia coli DL7, 0.5 µM (≈ 0.751 µg/mL) with Bacillus subtilis PS832 and 2 µM (≈ 3.01 µg/mL) in [34].
On to `CC[C@H](C)[C@H](NC(=O)[C@H](CCCCN)NC(=O)[C@H](CO)NC(=O)[C@H](Cc1c[nH]c2ccccc12)NC(=O)[C@@H](NC(=O)[C@H](CCCCN)NC(=O)[C@H](CCCCN)NC(=O)[C@@H](N)Cc1c[nH]c2ccccc12)[C@@H](C)CC)C(=O)N[C@@H](CCCCN)C(=O)N[C@@H](CCCCN)C(=O)N[C@@H](CC(C)C)C(=O)N[C@@H](CC(C)C)C(=O)N[C@@H](CCCCN)C(N)=O` [WKKIWSKIKKLLK], for which the MIC in the test with Escherichia coli AS1.349 was 6.25 µM (≈ 10.6 µg/mL); in test [35], 6.25 µM (≈ 10.6 µg/mL); in test [36], 6.25 µM (≈ 10.6 µg/mL); in test [37], 1.56 µM (≈ 2.65 µg/mL); in [38] it was 3.13 µM (≈ 5.32 µg/mL); against Bacillus cereus AS1.126, 3.13 µM (≈ 5.32 µg/mL). Moreover, the MIC in test [39] was 25 µM (≈ 42.5 µg/mL); in [40], 3.13 µM (≈ 5.32 µg/mL); in [41], 1.56 µM (≈ 2.65 µg/mL); in test [42], 3.13 µM (≈ 5.32 µg/mL); in [43], 3.12 µM (≈ 5.3 µg/mL); in test [44], 12.5 µM (≈ 21.2 µg/mL).
`CC(=O)NCC(=O)N[C@@H](Cc1c[nH]c2ccccc12)C(=O)N[C@@H](CCC(N)=O)C(=O)N[C@@H](CC(C)C)C(=O)N[C@@H](CC(C)C)C(=O)N[C@@H](C)C(=O)N[C@@H](CC(C)C)C(=O)N[C@@H](Cc1cnc[nH]1)C(=O)N[C@@H](CC(C)C)C(=O)N[C@@H](CCC(N)=O)C(=O)N[C@@H](CC(C)C)C(=O)N[C@@H](CC(C)C)C(=O)NCC(=O)N[C@@H](CC(C)C)C(=O)N[C@@H](Cc1cnc[nH]1)C(=O)N[C@@H](CC(C)C)C(=O)N[C@@H](CC(C)C)C(=O)N[C@@H](CCC(N)=O)C(=O)N[C@@H](CC(C)C)C(=O)N[C@@H](C)C(=O)N[C@@H](CC(C)C)C(=O)N[C@@H](CC(C)C)C(=O)N[C@@H](CCC(N)=O)C(=O)N[C@@H](CCCN=C(N)N)C(=O)N[C@@H](CCCN=C(N)N)C(=O)N[C@@H](CCCN=C(N)N)C(N)=O` [GWQLLALHLQLLGLHLLQLALLQRRR]: the minimal inhibitory concentration (MIC) (in test [45]; against Escherichia coli BL21) was not below 160 µM throughout.
